# Source: patent publication US6610675B1 (priority 1980, dated 2003)
# Tests used:
# Assay type in all cases: in vivo, rat
# [1] = tested on: ear swelling induced by croton oil; test: Ear edema test; details: 1 mg/kg topical
# Protocol: The test animals were Sprague/Dawley rats weighing approximately 150 grams each. In treatment groups, selected amounts of the test compound were dissolved in acetone containing 5% croton oil and 50 microliters of the solution were applied to the inner surface of the right ear of the rats. A control group was identically treated with vehicle only, i.e. 5% croton oil in acetone. Six hours after croton oil challenge, a constant region of each ear was removed by dissection under anesthesia. Then, 48 hours after steroid treatment, the animals were sacrificed and the thymi and adrenals were removed and weighed. The test results showing the inhibitory effect of topically applied steroids on the ear swelling induced by croton oil are summarized in Table II below.
# [2] = tested on: granulation tissue formation caused by implantation of cotton pellets; test: Granuloma formation test (local cotton pellet granuloma assay)
# Protocol: The test compound was dissolved in acetone and aliquots of varying concentrations were injected into cotton pellets. The pellets were dried and then one pellet was implanted beneath the skin of each test rat. Six days later, the animals were sacrificed and the granulation tissue (granuloma) which formed in and around the implanted pellet was removed, dried and weighed. In addition, the thymi and adrenals were removed and weighed.
# thymus weight in rats = test: Thymus inhibition testing (subcutaneous administration); details: for Body weight gain / Thymus / Thymus Inhibition: Table VII, three days
# Procedure, shortened: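 Male Sprague-Dawley rats were dosed systemically. On the fifth day, 48 hours after the last treatment, animals were sacrificed and thymus weights recorded.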
# [3] = tested on: blank cotton pellet granuloma; test: Blank cotton pellet granuloma assay (intravenous administration); details: 3 days
# Protocol: A further test was undertaken to determine the thymolytic activity of a representative species of the invention as compared to betamethasone 17-valerate. In this test, the drugs were administered intravenously to rats, while using a blank cotton pellet granuloma assay. Male Sprague-Dawley rats, each weighing about 185 grams (166-196 grams), were used. Two cotton pellets, each weighing 30 mg and containing no test compounds, were sterilized and implanted sub-cutaneously into the back of each test animal. This day was considered day 0 of implantation. Test compounds suspended in 0.8% polysorbate 80 were administered intravenously once daily for 3 consecutive days beginning with day 1. On day 5, the animals were sacrificed and the two pellets, with their respective granulomas, were removed, dried overnight in an oven at 50° C. and weighed (dry granuloma weight). The thymi and final body weights were also recorded.
# In the foregoing tests, there was determined the deactivation of the representative species of the present soft steroids administered intravenously to rats. […] The test compounds were administered intravenously to rats to check the test compounds also for systemic anti-inflammatory activity as compared to betamethasone 17-valerate. The test compounds were found lower in the inhibition of granulation tissue formation and also in the thymus involution activity than betamethasone 17-valerate. From the results of the tests, it is presumed that the compounds which will not be readily subjected to metabolism (deactivation) have a systemic anti-inflammatory activity, as is the case with betamethasone 17-valerate.
# [4] = Table X, betamethasone 17-valerate = 1
smiles,measurement,setting,value
"CCCCC(=O)O[C@]1(C(=O)CO)[C@@H](C)C[C@H]2[C@@H]3CCC4=CC(=O)C=C[C@]4(C)[C@@]3(F)[C@@H](O)C[C@@]21C [Betamethasone 17-valerate, reference compound]","Ear Weight, % Increase",[1]; 6 hr,10.9 ± 6.3 %
same,"Ear Weight, % Inhibition",[1]; 6 hr,82.2%
same,"Ear Weight, Inflamed Ear",[1]; 6 hr,55.4 ± 1.2 mg
same,"Ear Weight, Untreated Ear",[1]; 6 hr,50.4 ± 2.0 mg
same,Relative organ weight Adrenals,[1]; 48 hours,18.9 ± 1.9 mg/100 g body wt.
same,Relative organ weight Thymus,[1]; 48 hours,267 ± 19 mg/100 g body wt.
same,Body wt. gain,"[2]; Table III, 1 mg/pellet",16.6 ± 1.9 g
same,Granulation tissue Dry wt.,"[2]; Table III, 1 mg/pellet",35.4 ± 7.3 mg/100 g body wt.
same,Granulation tissue Inhibition,"[2]; Table III, 1 mg/pellet",19.0%
same,Relative organ weight Adrenals,"[2]; Table III, 1 mg/pellet",15.5 ± 1.3 mg/100 g body wt.
same,Relative organ weight Adrenals (Decrease %),"[2]; Table III, 1 mg/pellet",(34.6) %
same,Relative organ weight Thymus,"[2]; Table III, 1 mg/pellet",47 ± 2 mg/100 g body wt.
same,Relative organ weight Thymus (Decrease %),"[2]; Table III, 1 mg/pellet",(85.6) %
same,Body wt. gain,"[2]; Table III, 3 mg/pellet",14.9 ± 1.7 g
same,Granulation tissue Dry wt.,"[2]; Table III, 3 mg/pellet",31.6 ± 2.1 mg/100 g body wt.
same,Granulation tissue Inhibition,"[2]; Table III, 3 mg/pellet",27.7%
same,Relative organ weight Adrenals,"[2]; Table III, 3 mg/pellet",13.6 ± 0.9 mg/100 g body wt.
same,Relative organ weight Adrenals (Decrease %),"[2]; Table III, 3 mg/pellet",(42.6) %
same,Relative organ weight Thymus,"[2]; Table III, 3 mg/pellet",38 ± 3 mg/100 g body wt.
same,Relative organ weight Thymus (Decrease %),"[2]; Table III, 3 mg/pellet",(88.3) %
same,Body wt. gain,"[2]; Table III, 10 mg/pellet",17.0 ± 2.1 g
same,Granulation tissue Dry wt.,"[2]; Table III, 10 mg/pellet",40.7 ± 2.6 mg/100 g body wt.
same,Granulation tissue Inhibition,"[2]; Table III, 10 mg/pellet",6.9%
same,Relative organ weight Adrenals,"[2]; Table III, 10 mg/pellet",12.6 ± 0.9 mg/100 g body wt.
same,Relative organ weight Adrenals (Decrease %),"[2]; Table III, 10 mg/pellet",(46.8) %
same,Relative organ weight Thymus,"[2]; Table III, 10 mg/pellet",43 ± 4 mg/100 g body wt.
same,Relative organ weight Thymus (Decrease %),"[2]; Table III, 10 mg/pellet",(86.8) %
same,Body wt. gain,"[2]; Table IV, 100 μg/pellet",24.9 ± 1.9 g
same,Granulation tissue Dry wt.,"[2]; Table IV, 100 μg/pellet",41.1 ± 2.7 mg
same,Granulation tissue Dry wt. Inhibition,"[2]; Table IV, 100 μg/pellet",49.4%
same,Granulation tissue Wet wt.,"[2]; Table IV, 100 μg/pellet",400 ± 19 mg
same,Granulation tissue Wet wt. Inhibition,"[2]; Table IV, 100 μg/pellet",29.3%
same,Thymus wt.,"[2]; Table IV, 100 μg/pellet",364 ± 24 mg
same,Thymus wt. (Decrease %),"[2]; Table IV, 100 μg/pellet",(18.2) %
same,Body wt. gain,"[2]; Table IV, 300 μg/pellet",22.3 ± 1.2 g
same,Granulation tissue Dry wt.,"[2]; Table IV, 300 μg/pellet",33.3 ± 3.6 mg
same,Granulation tissue Dry wt. Inhibition,"[2]; Table IV, 300 μg/pellet",59.0%
same,Granulation tissue Wet wt.,"[2]; Table IV, 300 μg/pellet",347 ± 15 mg
same,Granulation tissue Wet wt. Inhibition,"[2]; Table IV, 300 μg/pellet",38.7%
same,Thymus wt.,"[2]; Table IV, 300 μg/pellet",264 ± 29 mg
same,Thymus wt. (Decrease %),"[2]; Table IV, 300 μg/pellet",(40.7) %
same,Body wt. gain,"[2]; Table IV, 1000 μg/pellet",5.3 ± 1.0 g
same,Granulation tissue Dry wt.,"[2]; Table IV, 1000 μg/pellet",38.1 ± 4.8 mg
same,Granulation tissue Dry wt. Inhibition,"[2]; Table IV, 1000 μg/pellet",53.1%
same,Granulation tissue Wet wt.,"[2]; Table IV, 1000 μg/pellet",363 ± 28 mg
same,Granulation tissue Wet wt. Inhibition,"[2]; Table IV, 1000 μg/pellet",35.9%
same,Thymus wt.,"[2]; Table IV, 1000 μg/pellet",77 ± 5 mg
same,Thymus wt. (Decrease %),"[2]; Table IV, 1000 μg/pellet",(82.7) %
same,Body wt. gain,"[2]; Table IV, 3000 μg/pellet",6.6 ± 1.4 g
same,Granulation tissue Dry wt.,"[2]; Table IV, 3000 μg/pellet",43.0 ± 4.1 mg
same,Granulation tissue Dry wt. Inhibition,"[2]; Table IV, 3000 μg/pellet",47.0%
same,Granulation tissue Wet wt.,"[2]; Table IV, 3000 μg/pellet",374 ± 15 mg
same,Granulation tissue Wet wt. Inhibition,"[2]; Table IV, 3000 μg/pellet",33.9%
same,Thymus wt.,"[2]; Table IV, 3000 μg/pellet",63 ± 3 mg
same,Thymus wt. (Decrease %),"[2]; Table IV, 3000 μg/pellet",(85.8) %
same,Body wt. gain,"[2]; Table V-a, 10 μg/pellet",31.8 ± 1.6 g
same,Granulation tissue Dry wt.,"[2]; Table V-a, 10 μg/pellet",38.5 ± 6.2 mg
same,Granulation tissue Dry wt. Inhibition,"[2]; Table V-a, 10 μg/pellet",51.9%
same,Granulation tissue Wet wt.,"[2]; Table V-a, 10 μg/pellet",375 ± 19 mg
same,Granulation tissue Wet wt. Inhibition,"[2]; Table V-a, 10 μg/pellet",28.6%
same,Thymus wt.,"[2]; Table V-a, 10 μg/pellet",479 ± 25 mg
same,Thymus wt. (Decrease %),"[2]; Table V-a, 10 μg/pellet",(3.2) %
same,Body wt. gain,"[2]; Table V-a, 30 μg/pellet",30.8 ± 3.0 g
same,Granulation tissue Dry wt.,"[2]; Table V-a, 30 μg/pellet",46.2 ± 7.4 mg
same,Granulation tissue Dry wt. Inhibition,"[2]; Table V-a, 30 μg/pellet",42.3%
same,Granulation tissue Wet wt.,"[2]; Table V-a, 30 μg/pellet",412 ± 42 mg
same,Granulation tissue Wet wt. Inhibition,"[2]; Table V-a, 30 μg/pellet",21.5%
same,Thymus wt.,"[2]; Table V-a, 30 μg/pellet",484 ± 23 mg
same,Thymus wt. (Decrease %),"[2]; Table V-a, 30 μg/pellet",(2.2) %
same,Body wt. gain,"[2]; Table V-a, 100 μg/pellet",25.7 ± 1.2 g
same,Granulation tissue Dry wt.,"[2]; Table V-a, 100 μg/pellet",41.0 ± 4.2 mg
same,Granulation tissue Dry wt. Inhibition,"[2]; Table V-a, 100 μg/pellet",48.8%
same,Granulation tissue Wet wt.,"[2]; Table V-a, 100 μg/pellet",419 ± 20 mg
same,Granulation tissue Wet wt. Inhibition,"[2]; Table V-a, 100 μg/pellet",20.2%
same,Thymus wt.,"[2]; Table V-a, 100 μg/pellet",378 ± 30 mg
same,Thymus wt. (Decrease %),"[2]; Table V-a, 100 μg/pellet",(23.6) %
same,ED50,"[2]; Table XII, anti-inflammatory effect in cotton pellet granuloma",100 μg/pellet
same,Body weight gain,thymus weight in rats; 0.1 mg/kg/day s.c.,15.5 ± 0.9 g
same,Thymus,thymus weight in rats; 0.1 mg/kg/day s.c.,362 ± 16 mg
same,Thymus Inhibition,thymus weight in rats; 0.1 mg/kg/day s.c.,23.1%
same,Body weight gain,thymus weight in rats; 0.3 mg/kg/day s.c.,12.4 ± 0.9 g
same,Thymus,thymus weight in rats; 0.3 mg/kg/day s.c.,276 ± 11 mg
same,Thymus Inhibition,thymus weight in rats; 0.3 mg/kg/day s.c.,41.4%
same,Body weight gain,thymus weight in rats; 1 mg/kg/day s.c.,13.0 ± 1.1 g
same,Thymus,thymus weight in rats; 1 mg/kg/day s.c.,200 ± 14 mg
same,Thymus Inhibition,thymus weight in rats; 1 mg/kg/day s.c.,57.5%
same,Body weight gain,thymus weight in rats; 3 mg/kg/day s.c.,9.9 ± 1.3 g
same,Thymus,thymus weight in rats; 3 mg/kg/day s.c.,119 ± 7 mg
same,Thymus Inhibition,thymus weight in rats; 3 mg/kg/day s.c.,74.7%
same,Relative Potency (TED40),thymus weight in rats; [4],1
same,Relative Potency (TED50),thymus weight in rats; [4],1
same,TED40,"thymus weight in rats; Table X, dose required to achieve 40% inhibition of thymi weight, subcutaneous",0.30 mg
same,TED50,"thymus weight in rats; Table X, dose required to achieve 50% inhibition of thymi weight, subcutaneous",0.58 mg
same,Relative Potency (TED40),"thymus weight in rats; Table XII, hydrocortisone 17-butyrate = 1",4
same,TED40,"thymus weight in rats; Table XII, thymus inhibition effect, subcutaneously",0.3 mg/kg
same,Body wt. gain,[3]; 0.1 mg/kg/day i.v.,14.4 ± 1.6 g
same,Dry granuloma wt.,[3]; 0.1 mg/kg/day i.v.,49.3 ± 3.9 mg
same,Dry granuloma wt. Inhibition,[3]; 0.1 mg/kg/day i.v.,21.4%
same,Thymus wt.,[3]; 0.1 mg/kg/day i.v.,305 ± 14 mg
same,Thymus wt. Decrease,[3]; 0.1 mg/kg/day i.v.,27.7%
same,Body wt. gain,[3]; 0.3 mg/kg/day i.v.,12.2 ± 1.1 g
same,Dry granuloma wt.,[3]; 0.3 mg/kg/day i.v.,44.4 ± 2.8 mg
same,Dry granuloma wt. Inhibition,[3]; 0.3 mg/kg/day i.v.,29.2%
same,Thymus wt.,[3]; 0.3 mg/kg/day i.v.,288 ± 27 mg
same,Thymus wt. Decrease,[3]; 0.3 mg/kg/day i.v.,31.8%
same,Body wt. gain,[3]; 1 mg/kg/day i.v.,12.9 ± 1.1 g
same,Dry granuloma wt.,[3]; 1 mg/kg/day i.v.,46.1 ± 4.3 mg
same,Dry granuloma wt. Inhibition,[3]; 1 mg/kg/day i.v.,26.5%
same,Thymus wt.,[3]; 1 mg/kg/day i.v.,233 ± 15 mg
same,Thymus wt. Decrease,[3]; 1 mg/kg/day i.v.,44.8%
same,Body wt. gain,[3]; 3 mg/kg/day i.v.,13.0 ± 2.5 g
same,Dry granuloma wt.,[3]; 3 mg/kg/day i.v.,47.3 ± 2.7 mg
same,Dry granuloma wt. Inhibition,[3]; 3 mg/kg/day i.v.,24.6%
same,Thymus wt.,[3]; 3 mg/kg/day i.v.,167 ± 22 mg
same,Thymus wt. Decrease,[3]; 3 mg/kg/day i.v.,60.4%
